Reference: patent publication US6855728B2, “Small-molecule modulators of hepatocyte growth factor / scatter factor activities” (North Shore-Long Island Jewish Health System, priority 2001, dated 2005)

Legend:
[1] = system: Endothelial cells (HUVECs); assay: Endothelial cell (HUVEC) proliferation assay, 3H thymidine incorporation, compound without added growth factor; assay type: cell-based, human; details: without HGF/SF; for Stimulation at 6-12 micrograms/ml Without HGF/SF: stimulation of endothelial cell proliferation
Procedure: Cell proliferation assays Endothelial cells (HUVECs) were seeded in 48 well plates at a density of 10,000 to 20,000 cells per well in the normal growth medium (EGM-2-Clonetics) containing 2% fetal bovine serum, FGF, VEGF, IGF, ascorbic acid, EGF, GA, heparin and hydrocortisone. The cells were grown normally in the growth medium for 24 hr at 37 degrees C. and 5% CO2. The cells were then rinsed with RPMI-1% BSA and starved for 1-2 hrs. The stock solutions of all the compounds were made at a concentration of 10 mg/ml in DMSO and diluted in RPMI-1% BSA at a final concentrations of 1 to 12 microgram/ml. The cells were then washed and treated with the compounds and incubated for another 24 hr at 37 degrees C. Then ^3H thymidine (0.5 microgram/ml in RPMI-BSA) was added to the cells and incubated at 37 degrees C. for 4 to 5 hours. The unincorporated thymidine was removed by washing the cells four times with 1× PBS. Then the cells were lysed with 0.5M NaOH for 30 min and the radioactivity counted in the beta counter. […]

[2] = system: HGF/SF induced proliferation of HUVEC; assay: Endothelial cell (HUVEC) proliferation assay in the presence of exogenously-added HGF/SF; assay type: cell-based, human; details: with HGF/SF; for inhibition at 6 µg/mL: read-out: Activity at 6 microgram/ml With HGF/SF: inhibition (blocked SF); for Stimulation at 6-12 micrograms/ml With: stimulation of endothelial cell proliferation; for inhibition at 2 µg/mL: read-out: Activity at 2 microgram/ml With HGF/SF: inhibition (blocked SF)
Description: To evaluate inhibitors of activity, compounds may be evaluated directly for anti-proliferative activities, such as the inhibition of cellular proliferation, inhibition of tumor growth, inhibition of scatter, and inhibition of gene expression, and may also be evaluated on their ability to inhibit activity when exposed to cells together with. In such instances, the scatter and/or proliferative activities induced by added will be inhibited by the attendant presence of an inhibitory compound of the invention.
Cell proliferation assays Endothelial cells (HUVECs) were seeded in 48 well plates at a density of 10,000 to 20,000 cells per well in the normal growth medium (EGM-2-Clonetics) containing 2% fetal bovine serum, FGF, VEGF, IGF, ascorbic acid, EGF, GA, heparin and hydrocortisone. The cells were grown normally in the growth medium for 24 hr at 37 degrees C. and 5% CO2. The cells were then rinsed with RPMI-1% BSA and starved for 1-2 hrs. The stock solutions of all the compounds were made at a concentration of 10 mg/ml in DMSO and diluted in RPMI-1% BSA at a final concentrations of 1 to 12 microgram/ml. The cells were then washed and treated with the compounds and incubated for another 24 hr at 37 degrees C. Then ^3H thymidine (0.5 microgram/ml in RPMI-BSA) was added to the cells and incubated at 37 degrees C. for 4 to 5 hours. The unincorporated thymidine was removed by washing the cells four times with 1× PBS. Then the cells were lysed with 0.5M NaOH for 30 min and the radioactivity counted in the beta counter.

[3] = Homo sapiens, 6 microgram/ml, inhibition of HUVEC proliferation
[4] = Homo sapiens, 2 microgram/ml, inhibition of HUVEC proliferation
[5] = 2 microgram/ml, stimulation of HUVEC proliferation
[6] = 6 microgram/ml, inhibition of HUVEC proliferation

Cc1onc(-c2c(Cl)cccc2Cl)c1C(=O)NNC(=S)Oc1ccccc1[N+](=O)[O-] [2-nitrophenyl 2-((3-(2,6-dichlorophenyl)-5-methylisoxazol-4-yl)carbonyl)hydrazine-1-carbothioate]
Activity at 2 microgram/ml Without HGF/SF (result in words) ([1]; 2 microgram/ml): No effect | inhibition at 6 µg/mL [1, 3]: 80% | Activity at 2 microgram/ml With HGF/SF (result in words) ([2]; 2 microgram/ml): No effect | inhibition at 6 µg/mL [2, 3]: 80%

CC(=O)C1=C(C)C[C@H]2[C@@H]3CC=C4C[C@@H](O)CC[C@]4(C)[C@H]3CC[C@]12C [16 methyl-16 Dehydropregnenolone]
Stimulation/Inhibition at 6-12 micrograms/ml Without HGF/SF (result in words) ([1]; 6-12 micrograms/ml): No effect | Stimulation at 6-12 micrograms/ml With ([2]; 6-12 micrograms/ml): 30% stimulation

Cc1onc(-c2c(Cl)cccc2Cl)c1C(=O)NNc1ccccc1 [N′4-phenyl-3-(2,6-dichlorophenyl)-5-methylisoxazole-4-carbohydrazide]
Activity at 2 microgram/ml Without HGF/SF (result in words) ([1]; 2 microgram/ml): No effect | Activity at 6 microgram/ml Without HGF/SF (result in words) ([1]; 6 microgram/ml): No effect | inhibition at 2 µg/mL [2, 4]: 40% | inhibition at 6 µg/mL [2, 3]: 80%

Cc1onc(-c2c(Cl)cccc2Cl)c1C(=O)NNc1c(Cl)cccc1Cl [N′4,3-di(2,6-dichlorophenyl)-5-methylisoxazole-4-carbohydrazide]
Activity at 2 microgram/ml Without HGF/SF (result in words) ([1]; 2 microgram/ml): No effect | inhibition at 6 µg/mL [1, 3]: 30% | Activity at 2 microgram/ml With HGF/SF (result in words) ([2]; 2 microgram/ml): not significant | inhibition at 6 µg/mL [2, 3]: 60%

Cc1nn(S(=O)(=O)c2ccc(Cl)cc2)c(C)c1Cc1c(Cl)cccc1Cl [1-((4-chlorophenyl)sulfonyl)-4-(2,6-dichlorobenzyl)-3,5-dimethyl-1H-pyrazol]
Activity at 2 microgram/ml Without HGF/SF (result in words) ([1]; 2 microgram/ml): No effect | Activity at 6 microgram/ml Without HGF/SF (result in words) ([1]; 6 microgram/ml): No effect | Activity at 2 microgram/ml With HGF/SF (result in words) ([2]; 2 microgram/ml): No effect | inhibition at 6 µg/mL [2, 3]: 50%

Cc1onc(-c2c(Cl)cccc2Cl)c1C(=O)NNc1cccc(C(F)(F)F)n1 [N′4-(6-(trifluoromethyl)-2-pyridyl)-3-(2,6-dichlorophenyl)-5-methylisoxazole-4-carbohydrazide]
inhibition at 2 µg/mL [1, 4]: 40% | inhibition at 6 µg/mL [1, 3]: 50% | inhibition at 2 µg/mL [2, 4]: 50% | inhibition at 6 µg/mL [2, 3]: 80%

C1=C(c2ccccc2)c2ccccc2C1(c1ccccc1)c1ccccc1 [1,1,3-triphenylinedene]
Stimulation at 6-12 micrograms/ml Without HGF/SF ([1]; 6-12 micrograms/ml): 50-100% stimulation | Stimulation at 6-12 micrograms/ml With ([2]; 6-12 micrograms/ml): 30-40% stimulation

c1ccc(-c2cc(-c3ccccc3)cc(-c3ccccc3)c2)cc1 [1,3,5-triphenylbenzene]
Stimulation at 6-12 micrograms/ml Without HGF/SF ([1]; 6-12 micrograms/ml): 40-60% stimulation | Stimulation at 6-12 micrograms/ml With ([2]; 6-12 micrograms/ml): two fold stimulation

CC(C)(C)c1n[nH]c(C(C)(C)C)c1Cc1c(F)cccc1Cl [3,5-di(tert-butyl)-4-(2-chloro-6-fluorobenzyl)-1H-pyrazole]
Activity at 2 microgram/ml Without HGF/SF: stimulation [1, 5]: 51% | Activity at 6 microgram/ml Without HGF/SF (result in words) ([1]; 6 microgram/ml): No effect | inhibition at 2 µg/mL [2, 4]: 25% | inhibition at 6 µg/mL [2, 3]: 50%

Cc1nn(C(=O)c2c(Cl)cccc2Cl)c(C)c1Cc1c(F)cccc1Cl [(4-(2-chloro-6-fluorobenzyl)-3,5-dimethyl-1H-pyrazole-1-yl)(2,6-dichlorophenyl)methanone]
Activity at 2 microgram/ml Without HGF/SF (result in words) ([1]; 2 microgram/ml): not significant | Activity at 6 microgram/ml Without HGF/SF (result in words) ([1]; 6 microgram/ml): not significant | inhibition at 2 µg/mL [2, 4]: 23% | inhibition at 6 µg/mL [2, 3]: 90%

Cc1onc(-c2c(Cl)cccc2Cl)c1C(=O)NN1CCCCCC1 [N4-azepan-1-yl-3-(2,6-dichlorophenyl)-5-methylisoxazole-4-carboxamide]
Activity at 2 microgram/ml Without HGF/SF (result in words) ([1]; 2 microgram/ml): No effect | inhibition at 6 µg/mL [1, 3]: 50% | Activity at 2 microgram/ml With HGF/SF (result in words) ([2]; 2 microgram/ml): No effect | inhibition at 6 µg/mL [2, 3]: 50%

Cc1nc(C(=O)NNC(=O)c2c(-c3c(Cl)cccc3Cl)noc2C)cs1 [N′4-((2-methyl-1,3-thiazol-4-4yl)carbonyl)-3-(2,6-dichlorophenyl)-5-methylisoxazole-4-4carbohydrazide]
Activity at 2 microgram/ml Without HGF/SF (result in words) ([1]; 2 microgram/ml): No effect | Activity at 6 microgram/ml Without HGF/SF: stimulation ([1]; 6 microgram/ml, stimulation of HUVEC proliferation): 52% | Activity at 2 microgram/ml With HGF/SF: inhibition (blocked SF) ([2]; 2 microgram/ml, inhibition of HUVEC proliferation): 50% | Activity at 6 microgram/ml With HGF/SF: inhibition (blocked SF) [2, 6]: 50%

c1ccc(-c2cc(-c3ccccc3)c(-c3ccccc3)c(-c3ccccc3)c2-c2ccccc2)cc1 [pentaphenylbenzene]
Stimulation at 6-12 micrograms/ml Without HGF/SF ([1]; 6-12 micrograms/ml): two to three fold stimulation | Inhibition at 6-12 micrograms/ml With ([2]; 6-12 micrograms/ml, inhibition of endothelial cell proliferation): 50% inhibition

Cc1nn(C(=O)c2cccs2)c(C)c1Cc1c(F)cccc1Cl [(4-(2-chloro-6-fluorobenzyl)-3,5-dimethyl-1H-pyrazole-1-yl)(2-thienyl)methanone]
Activity at 2 microgram/ml Without HGF/SF (result in words) ([1]; 2 microgram/ml): No effect | Activity at 6 microgram/ml Without HGF/SF (result in words) ([1]; 6 microgram/ml): No effect | Activity at 2 microgram/ml With HGF/SF (result in words) ([2]; 2 microgram/ml): No effect | inhibition at 6 µg/mL [2, 3]: 61%

Cc1cc(C)cc(Sc2ccc3nnc(-c4ccccc4)n3n2)c1 [6-(3,5-Dimethylphenyl) Thio)-3-Phenyl (1,2,4-Triazolo(4,3-b)pyridazine]
Activity at 1 ug/ml concentration Without HGF/SF (result in words) ([1]; 1 ug/ml): no significant effect | inhibition at 1 µg/mL ([2]; Homo sapiens, HUVEC, 1 ug/ml, inhibition of endothelial cell proliferation, read-out: Activity at 1 ug/ml concentration With HGF/SF: inhibition): 30%

Cc1onc(-c2c(Cl)cccc2Cl)c1C(=O)NNC(=O)CON=Cc1ccc(Cl)cc1Cl [N′4-(2-(((2,4-dichlorobenzylidene)amino)oxy)acetyl)-3-(2,6-dichlorophenyl)-5-methylisoxazole-4-carbohydrazide]
Activity at 2 microgram/ml Without HGF/SF: stimulation [1, 5]: 32% | Activity at 6 microgram/ml Without HGF/SF (result in words) ([1]; 6 microgram/ml): No effect | Activity at 2 microgram/ml With HGF/SF: stimulation [2, 5]: 30% | Activity at 6 microgram/ml With HGF/SF (result in words) ([2]; 6 microgram/ml): No effect

C(=C1c2ccccc2-c2ccccc2-c2ccccc21)c1ccc(-c2ccccc2)cc1 [9-biphenyl-4-ylmethylene-9H-tri-benzo(A,C,E)-cycloheptene]
Stimulation at 6-12 micrograms/ml Without HGF/SF ([1]; 6-12 micrograms/ml): 30-40% stimulation | Stimulation at 6-12 micrograms/ml With ([2]; 6-12 micrograms/ml): 20-30% stimulation

Cc1onc(-c2c(Cl)cccc2Cl)c1C(=O)NN(C)c1ccc([N+](=O)[O-])cn1 [N′4,5-dimethyl-N′4-(5-nitro-2-pyridyl)-3-(2,6-dichlorophenyl)isoxazole-4-carbohydrazide]
Activity at 2 microgram/ml Without HGF/SF (result in words) ([1]; 2 microgram/ml): No effect | Activity at 6 microgram/ml Without HGF/SF (result in words) ([1]; 6 microgram/ml): No effect | Activity at 2 microgram/ml With HGF/SF (result in words) ([2]; 2 microgram/ml): No effect | inhibition at 6 µg/mL [2, 3]: 43%

Cc1onc(-c2c(Cl)cccc2Cl)c1C(=O)NNc1c(Cl)cc(Cl)cc1Cl [N′4-(2,4,6-trichlorophenyl)-3-3(2,6-dichlorophenyl)-5-methylisoxazole-4-carbohydrazide]
Activity at 2 microgram/ml Without HGF/SF (result in words) ([1]; 2 microgram/ml): No effect | Activity at 6 microgram/ml Without HGF/SF (result in words) ([1]; 6 microgram/ml): No effect | Activity at 2 microgram/ml With HGF/SF (result in words) ([2]; 2 microgram/ml): No effect | Activity at 6 microgram/ml With HGF/SF: inhibition (blocked SF) [2, 6]: 60%
